According to US4529736A, “3a-(substituted phenyl)-2,3,3a,4,7,7a-hexahydro[or 3a-(substituted-phenyl)octahydro]-4,7-alkano-1H-isoindoles for treating depression in warm-blooded animals” (American Cyanamid Company, priority 1983, dated 1985):
Counter-ions that a name gives are not always drawn. Like-named read-outs stand apart in the source and are kept apart here.

What was measured:
[1] = target: T1, [^3 H]-imipramine binding to human platelet membranes (Homo sapiens, UniProt P31645); assay: Platelet Imipramine Binding: inhibition of [^3 H]-imipramine binding to human platelet membranes; settings: 50 μl of 50 μM compound stock + 200 μl membrane/[^3 H]imipramine mixture; 60 minutes at 0° C.; 10 μM desmethylimipramine = 0% binding
T1 construct: from tissue; host or cells: human platelets (sonicated, washed membranes)
Procedure: The activity of the compounds of this invention as antidepressant agents was further verified in the following test which measures the ability of a test compound to inhibit [^3 H]-imipramine binding to human platelet membranes.
Human platelet concentrates were diluted 1:20 with antiprotease containing buffer of the following composition:
0.005N potassium chloride
3 mN ethylenediaminetetraacetic acid
1 mN ethyleneglycol-bis-(β-aminoethyl ether)-N,N'-tetraacetic acid
This buffer was kept at pH 6.8 to prevent platelet release and aggregation.
The diluted platelets were centrifuged at 2500 g and then resuspended in 50 volumes of the same buffer. The cells were then ruptured with a Branson sonicator while the suspension was maintained in an ice bath. The ruptured cells were then centrifuged at 18,000 g, resuspended in fresh buffer and recentrifuged at 18,000 g. These membranes were diluted with the above antiprotease buffer which had been adjusted to pH 7.4 and to a concentration of 3.0 mg/ml.
The test compounds were dissolved in dimethylsulfoxide at a concentration of 50 mM and then diluted 1:10 in either water, 0.1M hydrochloric acid or 0.1M sodium hydroxide. They were then diluted 1:100 in buffer to 50 μM, and 50 μl of this stock solution was placed in triplicate test tubes. The tubes were cooled to 0° C. and 200 μl of the following mixture were added:
100 μl of 3 mg/ml membrane in buffer
50 μl of 15 nM[^3 H]imipramine in buffer
The tubes were incubated for 60 minutes at 0° C. Controls contain either buffer alone (100%) of 10 μM of final desmethylimipramine (DMI) (0%).
The samples were diluted with 5 ml of buffer [0.12M-sodium chloride, 0.05M-tris buffer, 0.005M-potassium chloride (pH 7.4)], vacuum filtered and washed twice with 5 ml of buffer. Radioactivity was measured in a liquid scintillation counter and the degree of binding was calculated.

[2] = test system: tetrabenazine-induced ptosis; assay: Tetrabenazine Induced Ptosis (inhibition of ptosis); type: in vivo; settings: Mus musculus, read-out: % Mice Responding
Procedure: The antidepressant activity of the compounds of this invention was further established in the following test. Inhibition of tetrabenazine-induced ptosis is observed concomitantly with the inhibition of tetrabenazine-induced depression. Ptosis is defined as more than 75% closure of palpebral aperture induced in animals by the administration of tetrabenazine methanesulfonate. The compounds were administered orally (P.O.) or intraperitoneally (I.P.) at 25 mg/kg to groups of 10 mice. Thirty minutes later, tetrabenazine methanesulfonate was administered intraperitoneally to each mouse at a dose of 39 mg/kg. Thirty minutes after the injection of tetrabenazine, the mice were placed on an observation disc and examined for 10 seconds for inhibition of ptosis. […]

[3] = test system: tetrabenazine-induced depression; assay: Tetrabenazine Induced Depression (exploratory behaviour); type: in vivo; settings: Mus musculus, read-out: % Mice Protected
Procedure: The compounds of this invention are useful as antidepressant agents in warm-blooded animals as verified by the following test. The antidepressant properties of these compounds were tested by measuring their ability to counteract depression induced in animals by the administration of tetrabenazine methanesulfonate. Each test compound was administered orally (P.O.) or intraperitoneally (I.P.) to 10 mice at a dose of 25 mg/kg of body weight. Thirty minutes later, tetrabenazine methanesulfonate was administered intraperitoneally to each mouse at a dose of 39 mg/kg of body weight, which dose is known to depress markedly the exploratory behaviour of normal mice. Thirty minutes later the mice were tested for their exploratory behaviour as described by E. Greenblatt and A. C. Osterberg, Toxicology and Applied Pharmacology, 7, 566-578 (1965).

[4] = test system: stress induced depressed ("coping") behavior; assay: Stress Induced Depressed Behavior Test; type: in vivo; settings: rats, intraperitoneally at 5-20 mg/kg; warm (44.5° C.) surface for 15 minutes; high ratio = active
Procedure: The compounds of this invention are active as antistress agents in warm-blooded animals as evidenced by their results when tested in the Stress Induced Depressed Behavior Test. In this test, rats were confined on a warm (44.5° C.), but aversive, surface for 15 minutes. After 5-6 minutes, control rats began to show episodes of depressed ("coping") behavior where they remained flat and immobile for short to long periods of time. The onset and total duration of this behavior was timed. A ratio of onset/duration was calculated. The test compounds were administered intraperitoneally at 5-20 mg/kg of body weight. Active compounds prolong the time of onset and shorten the duration time resulting in high ratios.

T1 sequence (P31645 whole entry): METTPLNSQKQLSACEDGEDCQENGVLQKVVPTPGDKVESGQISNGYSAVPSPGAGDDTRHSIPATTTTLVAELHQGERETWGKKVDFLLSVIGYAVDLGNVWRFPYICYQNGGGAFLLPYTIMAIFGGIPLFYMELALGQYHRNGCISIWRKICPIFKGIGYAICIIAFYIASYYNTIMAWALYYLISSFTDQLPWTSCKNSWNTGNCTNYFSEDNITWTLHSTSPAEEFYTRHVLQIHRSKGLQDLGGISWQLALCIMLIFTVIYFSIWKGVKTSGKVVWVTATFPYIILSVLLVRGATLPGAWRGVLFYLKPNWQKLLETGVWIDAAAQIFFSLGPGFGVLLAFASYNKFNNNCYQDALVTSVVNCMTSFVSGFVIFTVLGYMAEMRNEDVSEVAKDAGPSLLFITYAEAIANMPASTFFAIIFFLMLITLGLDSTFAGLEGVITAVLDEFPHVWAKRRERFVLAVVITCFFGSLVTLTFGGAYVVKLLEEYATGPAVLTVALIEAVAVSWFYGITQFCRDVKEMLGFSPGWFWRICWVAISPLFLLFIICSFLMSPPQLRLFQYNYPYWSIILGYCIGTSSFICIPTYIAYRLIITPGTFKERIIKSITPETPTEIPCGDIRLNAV

Row | SMILES | inhibition at 10 µM [1] | responders at 25 mg/kg ([2]; ip) | responders at 25 mg/kg ([3]; ip) | Ratio onset/duration [4] | responders at 25 mg/kg ([2]; po, P.O., 25 mg/kg, responders: 75% or greater opening of palpebral aperture) | responders at 25 mg/kg ([3]; po, P.O., 25 mg/kg, 10 mice, tetrabenazine methanesulfonate 39 mg/kg I.P.) | responders at 25 mg/kg ([3]; po) | responders at 25 mg/kg ([2]; po)
1 | CN1C[C@@H]2C3CCC(CC3)[C@]2(c2ccc(F)c(F)c2)C1 (relative stereo) [3a-(3,4-Difluorophenyl)octahydro-2-methyl-4,7-ethano-1H-isoindole fumarate (1:1)] | 100% | – | – | – | – | – | – | –
2 | Cc1ccc([C@@]23CNC[C@@H]2[C@@H]2C=C[C@H]3C2)cc1 (relative stereo) [2,3,3a,4,7,7a-Hexahydro-3a-(4-methylphenyl)-4,7-methano-1H-isoindole maleate (1:1)] | 94% | 60% | – | – | – | – | – | –
3 | CN1C[C@@H]2[C@@H]3CC[C@@H](C3)[C@]2(c2ccc(N)cc2)C1 (relative stereo) [4-(1,2,3,4,5,6,7,7a-Octahydro-2-methyl-4,7-methano-3aH-isoindol-3a-yl)benzenamine fumarate (1:1)] | 80% | 100% | 50% | – | – | – | – | –
4 | CN1C[C@@H]2[C@@H]3CC[C@@H](C3)[C@]2(c2ccc(F)c(F)c2)C1 (relative stereo) [3a-(3,4-Difluorophenyl)octahydro-2-methyl-4,7-methano-1H-isoindole fumarate (1:1)] | 95% | 70% | 50% | – | – | – | – | –
5 | CN1C[C@@H]2[C@@H]3C=C[C@@H](C3)[C@]2(c2cccc(C(F)(F)F)c2)C1 (relative stereo) [2,3,3a,4,7,7a-Hexahydro-2-methyl-3a-[3-(trifluoromethyl)phenyl]-4,7-methano-1H-isoindole fumarate] | 91% | 100% | 70% | – | – | – | – | –
6 | CN1C[C@@H]2[C@@H]3CC[C@@H](C3)[C@]2(c2ccc(Cl)c(Cl)c2)C1 (relative stereo) [3a-(3,4-Dichlorophenyl)octahydro-2-methyl-4,7-methano-1H-isoindole hydrochloride] | 93% | 100% | 60% | 59 | – | – | – | –
7 | C[N+]1(C)C[C@@H]2[C@@H]3CC[C@@H](C3)[C@]2(c2ccc(N=[N+]=[N-])cc2)C1 (relative stereo) [3a-(4-Azidophenyl)octahydro-2,2-dimethyl-4,7-methano-1H-isoindolium iodide] | 88% | – | – | – | 100% | 30% | – | –
8 | CN1C[C@@H]2[C@@H]3CC[C@@H](C3)[C@]2(c2ccc(Cl)cc2)C1 (relative stereo) [3a-(4-Chlorophenyl)octahydro-2-methyl-4,7-methano-1H-isoindole fumarate (1:1)] | 91% | 90% | 60% | 20 | – | – | – | –
9 | Clc1ccc([C@@]23CNC[C@@H]2[C@@H]2CC[C@H]3C2)cc1Cl (relative stereo) [3a-(3,4-Dichlorophenyl)octahydro-4,7-methano-1H-isoindole hydrochloride] | 96% | 100% | – | 76 | – | – | 40% | –
10 | Clc1ccc([C@@]23CNC[C@@H]2[C@@H]2C=C[C@H]3C2)cc1 (relative stereo) [3-a-(4-Chlorophenyl)-2,3,3a,4,7,7a-hexahydro-4,7-methano-1H-isoindole fumarate] | 98% | – | 60% | – | – | – | – | 80%
11 | CCN1C[C@@H]2C3CCC(CC3)[C@]2(c2ccc(Cl)c(Cl)c2)C1 (relative stereo) [3a-(3,4-Dichlorophenyl)-2-ethyloctahydro-4,7-ethano-1H-isoindole fumarate (1:1)] | 89% | 100% | – | 66 | – | – | 50% | –
12 | CN1C[C@@H]2[C@@H]3C=C[C@@H](C3)[C@]2(c2ccc(N)cc2)C1 (relative stereo) [4-(1,2,3,4,7,7a-Hexahydro-2-methyl-4,7-methano-3aH-isoindol-3a-yl)benzenamine fumarate (1:2)] | – | 100% | – | – | – | – | 70% | –
13 | CN1C[C@@H]2[C@@H]3C=C[C@@H](C3)[C@]2(c2cccc(Cl)c2)C1 (relative stereo) [3a-(3-Chlorophenyl)2,3,3a,4,7,7a-hexahydro-2-methyl-4,7-methano-1H-isoindole fumarate (1:1)] | 86% | 100% | 60% | 13 | – | – | – | –
14 | Cc1ccc([C@@]23CN(C)C[C@@H]2[C@@H]2C=C[C@H]3C2)cc1 (relative stereo) [2,3,3a,4,7,7a-Hexahydro-2-methyl-3a-(4-methylphenyl)-4,7-methano-1H-isoindole maleate (1:1)] | 98% | – | 80% | – | – | – | – | 90%
15 | c1ccc([C@@]23CNC[C@@H]2[C@@H]2CC[C@H]3C2)cc1 (relative stereo) [Octahydro-3a-phenyl-4,7-methano-1H-isoindole fumarate] | 98% | 50% | 50% | – | – | – | – | –
16 | CN1C[C@@H]2[C@@H]3CC[C@@H](C3)[C@]2(c2ccc([N+](=O)[O-])cc2)C1 (relative stereo) [Octahydro-2-methyl-3a-(4-nitrophenyl)-4,7-methano-1H-isoindole fumarate (1:1)] | 66% | 70% | 30% | – | – | – | – | –
17 | CN1C[C@@H]2C3CCC(CC3)[C@]2(c2ccc(Cl)c(Cl)c2)C1 (relative stereo) [3a-(3,4-Dichlorophenyl)octahydro-2-methyl-4,7-ethano-1H-isoindole fumarate (1:1)] | 94% | 90% | – | 83 | – | – | 50% | –
18 | COc1cccc([C@@]23CN(C)C[C@@H]2[C@@H]2C=C[C@H]3C2)c1 (relative stereo) [2,3,3a,4,7,7a-Hexahydro-3a-(3-methoxyphenyl)-2-methyl-4,7-methano-1H-isoindole maleate (1:1)] | 86% | – | – | – | – | – | 40% | 60%
19 | CN1C[C@@H]2[C@@H]3C=C[C@@H](C3)[C@]2(c2cccc(O)c2)C1 (relative stereo) [3-(1,2,3,4,7,7a-Hexahydro-2-methyl-4,7-methano-3aH-isoindol-3a-yl)phenol] | 86% | – | – | – | – | – | 60% | 100%
